The values below come from US20040209270A1, “Method for identifying macrocyclic polyketides” (priority 2001, published 2004).

The subject of assay [1] is biosensor E. coli SM 101 (EBZ512, pEBZ511, pEBZ514). Kind of assay: Luminescence measurements in the agar-plate diffusion assay with the E. coli biosensor system (luciferase reporter under mph(A) promoter / MphR(A) control). Conditions: assay discs, 28° C., 2 to 4 hours or 15 to 24 hours, FIG. 3. In kind it is cell-based. The procedure:
The agar-plate diffusion assay was incubated at 28° C. for 2 to 4 hours or 15 to 24 hours and luminescence was recorded using a Berthold Luminograph LB980 (FIGS. 3, 4 and 5). If luminescence is stimulated, it is detectable within a diffusion zone around the sample placed. If the sample assayed has, at the same time, an anti-bacterial activity against the sensor organism, which is noticeable as a zone of inhibition in the very preferred embodiment of the longer incubation, then the stimulation of luminescence is detectable outside this halo of inhibition in the sub-lethal concentration range.
Agar-plate diffusion assay and luminescence measurements using the E. coli biosensor system. Illustration of the selectivity of the biological sensor component. The numbers given in the information on the test substances indicate the amounts of substance applied in μg.
Agar-plate diffusion assay and luminescence measurements using the E. coli biosensor system. Exemplary illustration of the stimulation of luminescence of the biological sensor component as a function of time. The numbers given in the information on the test substances indicate the amounts of substance applied in μg.
On the technique in general: Reporter assays use an easily measured gene product as a stand-in for the process of interest.

For assay [2], the system named is microbial biosensor cell (E. coli biosensor system). The assay can be described thus: Detection of a macrolide-(erythromycin-) producing organism in situ, agar-plate diffusion assay with the biosensor. Conditions: assay disc or culture-covered agar blocks placed on biosensor suspension in soft agar; FIG. 5. In kind it is cell-based. The text has this:
For this purpose, the microbial biosensor cell was used in the agar-plate diffusion assay. Agar blocks were placed on the biosensor suspension embedded in soft agar. These agar blocks were covered either with Saccharopolyspora erythraea DSM 40517 described as erythromycin producer or with Streptomyces viridochromogenes DSM 40721 described as avilamycin producer. Another agar block contained no growth.
Agar-plate diffusion assay and luminescence measurements using the E. coli biosensor system. In situ stimulation of luminescence by an erythromycin-producing Saccharopolyspora erythraea culture. The number given in the information on the reference substance erythromycin indicates the amount of substance applied in μg.

As to `CC[C@H]1OC(=O)[C@H](C)[C@@H](O[C@H]2C[C@@](C)(OC)[C@@H](O)[C@H](C)O2)[C@H](C)[C@@H](O[C@@H]2O[C@H](C)C[C@H](N(C)C)[C@H]2O)[C@](C)(O)C[C@@H](C)CN(C)[C@H](C)[C@@H](O)[C@]1(C)O` [azithromycin], the “stimulation of luminescence of the biosensor system” value (shortened to “stimulation”) in assay [1] is reported as “stimulated”.
The same measure, in the same setting: then `O=C(N[C@H](CO)[C@H](O)c1ccc([N+](=O)[O-])cc1)C(Cl)Cl` [chloramphenicol], with “do not cause a stimulation of luminescence”.
For the molecule `CC[C@H]1OC(=O)[C@H](C)[C@@H](O[C@H]2C[C@@](C)(OC)[C@@H](O)[C@H](C)O2)[C@H](C)[C@@H](O[C@@H]2O[C@H](C)C[C@H](N(C)C)[C@H]2O)[C@](C)(OC)C[C@@H](C)C(=O)[C@H](C)[C@@H](O)[C@]1(C)O` [clarithromycin], the “stimulation” value in assay [1] is “indicates”.
With `CC[C@H]1OC(=O)[C@H](C)[C@@H](O[C@H]2C[C@@](C)(OC)[C@@H](O)[C@H](C)O2)[C@H](C)[C@@H](O[C@@H]2O[C@H](C)C[C@H](N(C)C)[C@H]2O)[C@](C)(O)C[C@@H](C)C(=O)[C@H](C)[C@@H](O)[C@]1(C)O` [erythromycin], the “stimulation” value in assay [1] is listed as “indicates”; in assay [2], “stimulation of luminescence was detectable”.
Turning to `C[C@@H]1O[C@@H]1P(=O)(O)O` [fosfomycin], in assay [1], the “stimulation” value is listed as “do not cause a stimulation of luminescence”.
Take `CC[C@H]1OC(=O)[C@H](C)[C@@H](O[C@@H]2O[C@H](C)C[C@H](N(C)C)[C@H]2O)[C@@H](C)C[C@@H](C)C(=O)/C=C/[C@]1(C)O` [methymycin]: the “stimulation” value in assay [1] was “stimulated”.
Still for that read-out and setting: then `CC[C@H]1OC(=O)[C@H](C)C(=O)[C@H](C)[C@@H](O[C@@H]2O[C@H](C)C[C@H](N(C)C)[C@H]2O)[C@@H](C)C[C@@H](C)C(=O)/C=C/[C@H]1C` [narbomycin], with “indicates”; and `CO[C@@H]1[C@@H](OC(N)=O)[C@@H](O)[C@H](Oc2ccc3c(O)c(NC(=O)c4ccc(O)c(CC=C(C)C)c4)c(=O)oc3c2C)OC1(C)C` [novobiocin], with “do not cause a stimulation of luminescence”.
Consider `CO[C@H]1C[C@H](O[C@H]2[C@H](C)[C@@H](O[C@@H]3O[C@H](C)C[C@H](N(C)C)[C@H]3O)[C@@H](C)C[C@@]3(CO3)C(=O)[C@H](C)[C@@H](O)[C@@H](C)[C@@H](C)OC(=O)[C@@H]2C)O[C@@H](C)[C@@H]1O` [oleandomycin], for which the “stimulation” value in assay [1] is “indicates”.
Consider `CC[C@H]1OC(=O)[C@H](C)C(=O)[C@H](C)[C@@H](O[C@@H]2O[C@H](C)C[C@H](N(C)C)[C@H]2O)[C@@H](C)C[C@@H](C)C(=O)/C=C/[C@]1(C)O` [picromycin], for which the “stimulation” value in assay [1] is reported as “indicates”.
`CN[C@H](CC(C)C)C(=O)N[C@H]1C(=O)N[C@@H](CC(N)=O)C(=O)N[C@H]2C(=O)N[C@H]3C(=O)N[C@H](C(=O)N[C@H](C(=O)O)c4cc(O)cc(O)c4-c4cc3ccc4O)[C@H](O)c3ccc(c(Cl)c3)Oc3cc2cc(c3O[C@@H]2O[C@H](CO)[C@@H](O)[C@H](O)[C@H]2O[C@H]2C[C@](C)(N)[C@H](O)[C@H](C)O2)Oc2ccc(cc2Cl)[C@H]1O` [vancomycin]: in assay [1], the “stimulation” value is “do not cause a stimulation of luminescence”.
